Measured values reported in patent US8518964B2, “Tricyclic compounds useful as inhibitors of kinases” (Merck Sharp & Dohme Corp., priority 2006, dated 2013).

Target: T1, IKKβ (Homo sapiens, UniProt O14920)
T1 construct: His; made in house; host or cells: SF9 insect cells (baculovirus, pVL1393 transfer vector)
T1 sequence (O14920 1-756): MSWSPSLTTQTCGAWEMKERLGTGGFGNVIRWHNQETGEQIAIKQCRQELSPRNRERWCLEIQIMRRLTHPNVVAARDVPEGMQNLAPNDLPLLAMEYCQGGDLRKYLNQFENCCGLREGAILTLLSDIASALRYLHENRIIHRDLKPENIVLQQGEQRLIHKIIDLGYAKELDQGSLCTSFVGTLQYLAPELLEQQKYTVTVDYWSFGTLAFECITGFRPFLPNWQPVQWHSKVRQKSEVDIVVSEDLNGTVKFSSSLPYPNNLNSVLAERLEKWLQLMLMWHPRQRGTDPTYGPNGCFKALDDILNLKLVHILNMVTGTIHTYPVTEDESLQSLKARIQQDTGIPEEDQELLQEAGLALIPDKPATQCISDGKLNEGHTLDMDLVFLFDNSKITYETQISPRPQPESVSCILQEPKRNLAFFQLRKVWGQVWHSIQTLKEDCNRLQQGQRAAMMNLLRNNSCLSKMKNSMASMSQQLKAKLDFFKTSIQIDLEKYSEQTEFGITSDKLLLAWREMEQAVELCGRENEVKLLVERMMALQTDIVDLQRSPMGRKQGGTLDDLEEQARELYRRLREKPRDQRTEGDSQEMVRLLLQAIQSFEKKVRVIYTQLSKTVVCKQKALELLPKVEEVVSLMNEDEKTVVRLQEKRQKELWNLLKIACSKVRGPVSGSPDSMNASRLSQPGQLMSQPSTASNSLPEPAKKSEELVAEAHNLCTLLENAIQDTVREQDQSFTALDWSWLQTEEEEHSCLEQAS
Experiment: Homogenous Time Resolved Fluorescence (HTRF) assay for IKK inhibitory activity
Format: biochemical
Settings: read-out: IKKβIC50
Description: Homogenous Time Resolved Fluorescence (HTRF) Assay for IKK Inhibitory Activity.
This enzyme assay monitors the inhibitory potency of the compounds of Formula I and II to block the catalytic activity of IKKα and IKKβ in vitro. The full-length coding sequences of IKKα and IKKβ are subcloned into the appropriate site of pVL1393 (Pharmingen) to construct a baculovirus transfer vector. Recombinant baculovirus was generated from vector-transfected SF9 cells (BaculoGold™, Invitrogen), cloned, amplified and used to infect SF9 cells for protein production. Recombinant His-tagged IKKα and IKKβ are isolated from the Baculovirus-infected SF9 cells expressing the fusion protein.
An HTRF assay in a 384-well format established on a Biomek FX is used to test the inhibitory activity of compounds of Formula I. The peptide substrate, biotin-DRHDSGLDSMKDE (SEQ. ID.: 1) used to assay IKKβ activity spans residues 28 to 40 of IκBα and was custom synthesized (Synpep). A biotinylated peptide that spans residues 21 to 40 of Iκbα, […] (SEQ. ID.: 2), was used as substrate for IKKα. The assay conditions used to test inhibitory activity of compounds against IKKβ comprises 110 nM recombinant enzyme, 150 nM peptide substrate, 6 μM ATP, 10% (v/v) DMSO, 15 mM MgCl2, 2 mM DTT, and 50 mM Tris/HCl at a pH of 7.5. For IKKα, the reaction mixture comprises 125 nM recombinant enzyme, 400 nM peptide substrate, 6 μM ATP, 10% (v/v) DMSO, 15 mM MgCl2, 2 mM DTT, and 50 mM Tris/HCl at a pH of 7.5. The kinase reaction proceeds for 20 and 35 min for IKKα and IKKβ respectively and then it is quenched by the addition of EDTA to a final concentration of 20 mM. Following completion of the kinase assay, 5 μL of the reaction is quantified by HTRF with a 5 μL detection mix comprising 40 mM HEPES, 100 mM KF, 27.7 nM Streptavidin-tagged-XL665-XLent (CIS-Bio international), 0.3 nM anti-phospho-IκBα mAb (Cell signaling), 1 nM anti-phospho peptide antibody conjugated to Eu (CIS-Bio international). Following excitation at 330 nm, the 665 nm/615 nm emission ratio is measured after a 2-hour incubation at room temperature to quantify the FRET signal.

## NC(=O)c1cnc(N)c2c1sc1c(Cl)cccc12 [Example 3, 1-Amino-6-chloro[1]benzothieno[3,2-c]pyridine-4-carboxamide]
  IC50: ≤ 1000 nM

## NC(=O)c1cnc(N)c2c1sc1c(-c3ccccc3)cccc12 [Example 4, 1-Amino-6-phenyl[1]benzothieno[3,2-c]pyridine-4-carboxamide]
  IC50: ≤ 1000 nM

## NC(=O)c1cnc(N)c2c1[nH]c1cc(C(F)(F)F)ccc12 [Example 5, 1-Amino-7-(trifluoromethyl)-5H-pyrido[4,3-b]indole-4-carboxamide]
  IC50: ≤ 100 nM

## NC(=O)c1cnc(N)c2c1[nH]c1ccc(F)cc12 [Example 6, 1-Amino-8-fluoro-5H-pyrido[4,3-b]indole-4-carboxamide]
  IC50: ≤ 1000 nM

## CCCCNc1ncc(C(N)=O)c2[nH]c3ccc(F)cc3c12 [Example 8, 1-(Butylamino)-8-fluoro-5H-pyrido[4,3-b]indole-4-carboxamide]
  IC50: ≤ 1000 nM

## NC(=O)c1cnc(N2CCC3(CC2)OCc2ccccc23)c2c1[nH]c1ccc(F)cc12 [Example 9, 8-Fluoro-1-(1′H,3H-spiro[2-benzofuran-1,4′-piperidin]-1′-yl)-5H-pyrido[4,3-b]indole-4-carboxamide]
  IC50: ≤ 500 nM

## NC(=O)c1cnc(N)c2c1[nH]c1ccc(Br)cc12 [Example 11, 1-Amino-8-bromo-5H-pyrido[4,3-b]indole-4-carboxamide]
  IC50: ≤ 1000 nM

## NC(=O)c1cnc(N)c2c1sc1cc(/C=C/c3ccc(F)cc3)ccc12 [Example 16, 1-Amino-7-[(E)-2-(4-fluorophenyl)vinyl][1]benzothieno[3,2-c]pyridine-4-carboxamide]
  IC50: ≤ 500 nM

## CN(C)Cc1ccc(-c2ccc3c(c2)sc2c(C(N)=O)cnc(N)c23)cc1 [Example 21, 1-Amino-7-{4-[(dimethylamino)methyl]phenyl}[1]benzothieno[3,2-c]pyridine-4-carboxamide]
  IC50: ≤ 500 nM

## NC(=O)c1cnc(N)c2c1[nH]c1c(Cl)cccc12 [Example 25, 1-Amino-6-chloro-5H-pyrido[4,3-b]indole-4-carboxamide]
  IC50: ≤ 100 nM
